Drawing on ChEMBL document CHEMBL1133093, “The PPARs: from orphan receptors to drug discovery” (J Med Chem, 2000), this text covers EC50 for 16 compounds.

Assay [1] addresses T1, Peroxisome proliferator-activated receptor alpha (Mus musculus, UniProt P23204).
T1 sequence (P23204 whole entry): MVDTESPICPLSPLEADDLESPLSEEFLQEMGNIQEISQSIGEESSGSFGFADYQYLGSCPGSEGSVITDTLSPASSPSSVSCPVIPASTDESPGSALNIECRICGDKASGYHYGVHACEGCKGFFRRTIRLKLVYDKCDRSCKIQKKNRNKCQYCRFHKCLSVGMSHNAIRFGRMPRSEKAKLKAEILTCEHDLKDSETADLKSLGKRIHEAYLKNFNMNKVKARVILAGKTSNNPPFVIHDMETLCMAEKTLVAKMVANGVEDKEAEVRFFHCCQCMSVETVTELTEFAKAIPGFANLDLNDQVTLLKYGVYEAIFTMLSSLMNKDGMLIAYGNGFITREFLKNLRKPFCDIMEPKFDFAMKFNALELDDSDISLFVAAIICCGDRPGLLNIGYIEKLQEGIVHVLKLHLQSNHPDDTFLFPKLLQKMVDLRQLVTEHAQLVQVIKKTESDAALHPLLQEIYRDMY
The assay is classed as functional.

In assay [2] the target is T2, Peroxisome proliferator-activated receptor delta (Mus musculus, UniProt P35396).
T2 sequence (P35396 whole entry): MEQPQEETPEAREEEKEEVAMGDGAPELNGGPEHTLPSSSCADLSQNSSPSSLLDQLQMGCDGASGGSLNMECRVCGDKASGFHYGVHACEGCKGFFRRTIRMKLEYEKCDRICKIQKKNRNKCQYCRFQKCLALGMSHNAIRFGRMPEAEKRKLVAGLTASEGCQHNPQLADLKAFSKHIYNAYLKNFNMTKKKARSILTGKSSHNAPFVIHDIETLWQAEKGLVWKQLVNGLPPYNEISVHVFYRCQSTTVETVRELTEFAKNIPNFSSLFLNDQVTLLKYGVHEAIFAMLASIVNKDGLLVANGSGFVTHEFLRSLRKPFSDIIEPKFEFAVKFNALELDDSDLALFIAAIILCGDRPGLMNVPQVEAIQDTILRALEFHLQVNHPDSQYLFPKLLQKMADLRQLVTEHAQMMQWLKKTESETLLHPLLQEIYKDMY
Briefly: Agonist activity for murine PPAR delta receptor in transcriptional activation assay. The assay is classed as functional.

The target of assay [3] is T3, Peroxisome proliferator-activated receptor delta (Homo sapiens, UniProt Q03181).
T3 sequence (Q03181 whole entry): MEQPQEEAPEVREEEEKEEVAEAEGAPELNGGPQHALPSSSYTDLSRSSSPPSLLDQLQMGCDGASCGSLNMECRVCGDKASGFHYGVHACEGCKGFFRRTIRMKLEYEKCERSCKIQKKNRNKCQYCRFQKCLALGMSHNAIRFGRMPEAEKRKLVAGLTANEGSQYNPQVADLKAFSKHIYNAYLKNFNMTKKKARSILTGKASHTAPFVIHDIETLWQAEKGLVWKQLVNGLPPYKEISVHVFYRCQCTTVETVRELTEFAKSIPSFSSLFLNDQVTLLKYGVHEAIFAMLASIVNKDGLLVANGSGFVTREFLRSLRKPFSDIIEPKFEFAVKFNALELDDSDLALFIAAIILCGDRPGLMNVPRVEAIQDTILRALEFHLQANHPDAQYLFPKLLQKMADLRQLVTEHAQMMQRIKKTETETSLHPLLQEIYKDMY

The target of assay [4] is T1, Peroxisome proliferator-activated receptor alpha. Briefly: Agonist activity for murine PPAR alpha receptor in transcriptional activation assay;IA means inactive at 10 uM. The assay is classed as functional.
For assay [5], the target named is T4, Peroxisome proliferator-activated receptor alpha (Homo sapiens, UniProt Q07869).
T4 sequence (Q07869 whole entry): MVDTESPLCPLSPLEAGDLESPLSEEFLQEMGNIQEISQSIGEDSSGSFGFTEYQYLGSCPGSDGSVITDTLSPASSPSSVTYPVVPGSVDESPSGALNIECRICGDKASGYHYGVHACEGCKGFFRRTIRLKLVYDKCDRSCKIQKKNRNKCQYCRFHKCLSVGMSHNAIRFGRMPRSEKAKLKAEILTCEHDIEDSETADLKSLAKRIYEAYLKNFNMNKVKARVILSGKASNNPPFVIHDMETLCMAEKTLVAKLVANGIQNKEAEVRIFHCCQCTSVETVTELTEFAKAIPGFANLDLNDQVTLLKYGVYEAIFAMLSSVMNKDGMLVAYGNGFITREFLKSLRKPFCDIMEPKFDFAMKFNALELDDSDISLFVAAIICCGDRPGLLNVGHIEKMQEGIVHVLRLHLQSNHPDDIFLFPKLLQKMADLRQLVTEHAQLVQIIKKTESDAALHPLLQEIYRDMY

Assay [6] deals with T5, Peroxisome proliferator-activated receptor gamma (Homo sapiens, UniProt P37231).
T5 sequence (P37231 whole entry): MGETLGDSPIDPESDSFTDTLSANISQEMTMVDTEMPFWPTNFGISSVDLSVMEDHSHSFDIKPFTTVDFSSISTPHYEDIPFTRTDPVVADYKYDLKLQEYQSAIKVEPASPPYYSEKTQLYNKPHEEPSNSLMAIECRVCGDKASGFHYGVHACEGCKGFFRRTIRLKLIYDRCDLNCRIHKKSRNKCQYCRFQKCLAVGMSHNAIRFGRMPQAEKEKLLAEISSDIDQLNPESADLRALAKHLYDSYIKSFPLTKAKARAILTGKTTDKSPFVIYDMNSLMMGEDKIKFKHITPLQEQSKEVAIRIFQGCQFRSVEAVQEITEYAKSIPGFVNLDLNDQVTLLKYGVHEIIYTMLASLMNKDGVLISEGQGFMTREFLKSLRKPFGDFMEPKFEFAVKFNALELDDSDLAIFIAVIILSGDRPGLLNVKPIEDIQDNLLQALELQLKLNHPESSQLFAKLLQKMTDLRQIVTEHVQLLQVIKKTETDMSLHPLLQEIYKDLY

Assay [7] addresses T6, Peroxisome proliferator-activated receptor gamma (Mus musculus, UniProt P37238).
T6 sequence (P37238 whole entry): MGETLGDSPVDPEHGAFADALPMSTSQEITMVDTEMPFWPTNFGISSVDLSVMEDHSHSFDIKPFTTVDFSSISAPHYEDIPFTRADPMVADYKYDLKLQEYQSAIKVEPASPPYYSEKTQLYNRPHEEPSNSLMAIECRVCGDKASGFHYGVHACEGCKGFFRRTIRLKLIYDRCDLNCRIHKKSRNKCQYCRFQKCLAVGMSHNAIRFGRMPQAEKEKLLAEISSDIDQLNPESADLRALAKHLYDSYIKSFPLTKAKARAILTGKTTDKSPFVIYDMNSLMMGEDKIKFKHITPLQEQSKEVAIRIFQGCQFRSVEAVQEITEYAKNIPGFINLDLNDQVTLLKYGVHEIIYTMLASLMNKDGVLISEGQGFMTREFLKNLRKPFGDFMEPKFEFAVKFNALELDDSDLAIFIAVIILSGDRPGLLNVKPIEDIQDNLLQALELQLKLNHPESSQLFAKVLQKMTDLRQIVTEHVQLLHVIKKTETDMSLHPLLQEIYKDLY
Description: Agonist activity for murine PPAR gamma receptor in transcriptional activation assay

The target of assay [8] is T4, Peroxisome proliferator-activated receptor alpha. Briefly: Agonist activity for Human PPAR alpha receptor in transcriptional activation assay; IA means inactive at 10 uM. The class given is functional.
Assay [9] concerns the target T3, Peroxisome proliferator-activated receptor delta. The assay is described as follows: Agonist activity for Human PPAR delta receptor in transcriptional activation assay; IA means inactive at 10 uM. The assay is classed as functional.
The target of assay [10] is T1, Peroxisome proliferator-activated receptor alpha. Briefly: Agonist activity for murine PPAR alpha receptor in transcriptional activation assay; IA means inactive at 10 uM. The class given is functional.
Assay [11] addresses T2, Peroxisome proliferator-activated receptor delta. Briefly: Agonist activity for murine PPAR delta receptor in transcriptional activation assay; IA means inactive at 10 uM. The class given is functional.
Assay [12] addresses T3, Peroxisome proliferator-activated receptor delta. The assay is described as follows: Agonist activity for Human PPAR delta receptor in transcriptional activation assay at 100 uM; IA means inactive. The class given is functional.
In assay [13] the target is T2, Peroxisome proliferator-activated receptor delta.
Description: Agonist activity for murine PPAR delta receptor in transcriptional activation assay at 100 uM; IA means inactive
Assay [14] deals with T4, Peroxisome proliferator-activated receptor alpha. This is another data set of the same source.
Assay [15] shares this target. The assay is described as follows: Agonist activity for Human PPAR alpha receptor in transcriptional activation assay;IA means inactive at 10 uM. The class given is functional.
The target in assay [16] is T3, Peroxisome proliferator-activated receptor delta. This is another data set of the same source.
Description: Agonist activity for Human PPAR delta receptor in transcriptional activation assay;IA means inactive at 10 uM
In assay [17] the target is T2, Peroxisome proliferator-activated receptor delta. The source holds these as a separate data set.
Description: Agonist activity for murine PPAR delta receptor in transcriptional activation assay;IA means inactive at 10 uM
Assay [18] concerns the target T5, Peroxisome proliferator-activated receptor gamma. Briefly: Agonist activity for Human PPAR gamma receptor in transcriptional activation assay. The assay is classed as functional.
The target in assay [19] is T3, Peroxisome proliferator-activated receptor delta. This is another data set of the same source.
Assay [20] concerns the target T2, Peroxisome proliferator-activated receptor delta. This is another data set of the same source.

The structures appear in SMILES notation.

Regarding `COc1ccc(CC2SC(=O)NC2=O)cc1C(=O)NCc1ccc(C(F)(F)F)cc1` (centres undefined), the concentration for a half-maximal effect (EC50) (usually the concentration giving half of the maximal effect) is 10000 nM in [1], 7200 nM in assay [2] and 9100 nM in assay [3].
Take `CCCc1c(OCCCOc2ccc(OCC(=O)O)cc2)ccc(C(C)=O)c1O`: the EC50 result in assay [4] is “Not Active”; in [2], 3800 nM; in [5] it was 10000 nM; in [6], 5500 nM; in assay [7], 10000 nM; in [3], 530 nM.
Consider `CCCc1c(OCCCSc2ccc(CC(=O)O)cc2Cl)ccc2c(-c3ccccc3)coc12` [L-796449], for which the EC50 in [1] came to 7600 nM; in [2] it was 23 nM; in assay [5], 4.1 nM; in assay [7], 10 nM.
Consider `COc1ccc(CCc2c(-c3ccccc3)[nH]c3ccc(CC(=O)O)cc23)cc1`, for which the EC50 result in [8] is “Not Active”; in assay [9] it was “Not Active”; in assay [10], “Not Active”; in assay [11], “Not Active”; in [7], 140 nM.
Turning to `Cc1cccc(Nc2cc(Cl)nc(SCC(=O)O)n2)c1C` [PIRINIXIC ACID], the EC50 in assay [7] amounted to 32000 nM.
Consider `CCOC(Cc1ccc(OCCN(C)c2nc3ccccc3o2)cc1)C(=O)O` (centres undefined), for which the EC50 in assay [1] stood at 930 nM; in [5], 740 nM.
For `CC(C)OC(=O)C(C)(C)Oc1ccc(C(=O)c2ccc(Cl)cc2)cc1` [FENOFIBRATE], the EC50 entry in [12] and in [13] was “Not Active” throughout.
Take `CC(C)(Oc1ccc(CCCN(CCc2c(F)cccc2Cl)C(=O)Nc2cccc(Cl)c2Cl)cc1)C(=O)O`: the EC50 came to 270 nM in [1]; 410 nM in assay [2]; 170 nM in [5]; 2500 nM in assay [6]; 1500 nM in [7].
As to `CN(CCOc1ccc(CC2SC(=O)NC2=O)cc1)c1ccccn1` (centres undefined) [ROSIGLITAZONE], the EC50 result in [10] and in assay [14] was “Not Active” in each case.
Turning to `CN(CCOc1ccc(C[C@H](Nc2ccccc2C(=O)c2ccccc2)C(=O)O)cc1)c1ccccn1`, the concentration for a half-maximal effect (EC50) result in assay [15] is “Not Active”; in assay [4], “Not Active”; in [7] it was 13 nM; in assay [16] it was “Not Active”; in [17] it was “Not Active”.
Turning to `CCOC(=O)C(C)(C)Oc1ccc(Cl)cc1` [CLOFIBRATE], the EC50 was 500000 nM in assay [18]; “Not Active” in assay [12]; 50000 nM in [1]; 55000 nM in [5]; “Not Active” in assay [13].
Turning to `Cc1oc(-c2ccccc2)nc1CCOc1ccc(CC2C(=O)NOC2=O)cc1` (centres undefined) [REGLITAZAR], the EC50 in assay [1] was 4300 nM; in [5], 1900 nM; in assay [7], 89 nM; in assay [16], “Not Active”; in [17], “Not Active”.
Take `COC(=O)c1ccccc1N[C@@H](Cc1ccc(OCCc2nc(-c3ccccc3)oc2C)cc1)C(=O)O` [GW7845]: the EC50 entry in [4], in assay [16] and in assay [17] was “Not Active” each time.
Take `CCc1ccc(CCOc2ccc(CC3SC(=O)NC3=O)cc2)nc1` (centres undefined) [PIOGLITAZONE]: the EC50 result in assay [10], in assay [14], in [19] and in [20] was “Not Active” throughout.
With `Cc1c(C)c2c(c(C)c1O)CCC(C)(COc1ccc(CC3SC(=O)NC3=O)cc1)O2` (centres undefined) [TROGLITAZONE], the EC50 entry in assay [10], in [14], in assay [19] and in assay [20] was “Not Active” throughout.
As for `Cc1oc(-c2ccccc2)nc1CCOc1ccc(C[C@H](Nc2ccccc2C(=O)c2ccccc2)C(=O)O)cc1` [FARGLITAZAR], the EC50 result in assay [4], in assay [16] and in assay [17] was “Not Active” in each case.
